Measurements published in ChEMBL document CHEMBL1201862, “PubChem BioAssay data set” (2004).
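Five compound concentrations were applied to cells in 96-well plates for 48 hours; endpoints were derived by simple linear interpolation of the resulting dose-response curve. GI50 is the concentration that inhibits growth by half.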 Active and inactive are the calls of the source. No stated cut-off is given here; in the data, active = GI50 up to about 1.1 µM and inactive = higher.

What was measured:
Experiment in all cases: NCI-60 cell line screen, 48 h
SF-295 = test system: SF-295
OVCAR-4 = test system: OVCAR-4
COLO 205 = test system: COLO 205
HT-29 = test system: HT-29
NCI-H460 = test system: NCI-H460
HCT-15 = test system: HCT-15
KM12 = test system: KM12
SK-MEL-5 = test system: SK-MEL-5
UACC-62 = test system: UACC-62
HCT-116 = test system: HCT-116
UACC-257 = test system: UACC-257
HCC 2998 = test system: HCC 2998
MOLT-4 = test system: MOLT-4
Malme-3M = test system: Malme-3M
HL-60 = test system: HL-60

| SMILES | GI50 (SF-295) | GI50 (OVCAR-4) | GI50 (COLO 205) | GI50 (HT-29) | GI50 (NCI-H460) | GI50 (HCT-15) [µM] | GI50 (KM12) | GI50 (SK-MEL-5) | GI50 (UACC-62) | GI50 (HCT-116) | GI50 (UACC-257) | GI50 (HCC 2998) | GI50 (MOLT-4) | GI50 (Malme-3M) | GI50 (HL-60) |
| --- | --- | --- | --- | --- | --- | --- | --- | --- | --- | --- | --- | --- | --- | --- | --- |
| CCCN(CCC)CCc1cc(C(C)=O)n(S(=O)(=O)c2ccc(C)cc2)c1 | > 100 µM (inactive) | > 100 µM (inactive) | > 100 µM (inactive) | 45.6 µM (inactive) | > 100 µM (inactive) | > 100 | > 100 µM (inactive) | 41.4 µM (inactive) | > 100 µM (inactive) | > 100 µM (inactive) | 54.6 µM (inactive) | > 100 µM (inactive) | > 100 µM (inactive) | > 100 µM (inactive) |  |
| O=C(Nc1ccc(Cl)cc1Cl)C(=O)C(C(=O)c1ccncc1)C1OC(=O)c2ccccc21 (stereo not given) | > 100 µM (inactive) | > 100 µM (inactive) | > 100 µM (inactive) | > 100 µM (inactive) | > 100 µM (inactive) | > 100 | > 100 µM (inactive) | > 100 µM (inactive) | > 100 µM (inactive) | > 100 µM (inactive) | > 100 µM (inactive) | > 100 µM (inactive) | > 100 µM (inactive) | > 100 µM (inactive) | > 100 µM (inactive) |
| COC(=O)/C(Cl)=C1/CC1COCc1ccccc1 (stereo not given) | 53.5 µM (inactive) | 31 µM (inactive) | 21.2 µM (inactive) | 25 µM (inactive) | 43.4 µM (inactive) | 17.1 | 28.7 µM (inactive) | 24.1 µM (inactive) | 23.9 µM (inactive) |  | 34.7 µM (inactive) | > 10 µM (inactive) | 19.8 µM (inactive) | 26.6 µM (inactive) | 13.6 µM (inactive) |
| CCC12CCCC(=O)N1C(CO)C(c1ccccc1)O2 (stereo not given) | > 100 µM (inactive) | > 100 µM (inactive) | > 100 µM (inactive) | > 100 µM (inactive) | > 100 µM (inactive) | > 100 | > 100 µM (inactive) | > 100 µM (inactive) | > 100 µM (inactive) | > 100 µM (inactive) | > 100 µM (inactive) |  |  | > 100 µM (inactive) |  |
| O=S1(=O)NN=C(NCc2ccc(Cl)c(Cl)c2)c2ccccc21 | > 100 µM (inactive) | > 100 µM (inactive) | > 100 µM (inactive) | 53.8 µM (inactive) | 95.3 µM (inactive) | 36 | > 100 µM (inactive) | 86.9 µM (inactive) | 6.56 µM (inactive) | > 100 µM (inactive) | > 100 µM (inactive) | > 100 µM (inactive) | 15.1 µM (inactive) | > 100 µM (inactive) | 26.5 µM (inactive) |
| N#CC(NNC(=O)Cc1ccccc1)c1cccc(O)c1 (stereo not given) | > 100 µM (inactive) | > 100 µM (inactive) | > 100 µM (inactive) | > 100 µM (inactive) | > 100 µM (inactive) | > 100 | > 100 µM (inactive) | > 100 µM (inactive) | > 100 µM (inactive) | > 100 µM (inactive) | > 100 µM (inactive) |  | > 100 µM (inactive) | > 100 µM (inactive) | > 100 µM (inactive) |
| CCCCCCCCCCCCN(O)C(=O)c1ccccc1 | 29.4 µM (inactive) |  |  | 39.4 µM (inactive) | > 10 µM (inactive) | 9.64 | 38 µM (inactive) | > 10 µM (inactive) | 19.7 µM (inactive) | 42 µM (inactive) | 18.8 µM (inactive) | 30.3 µM (inactive) | 6.44 µM (inactive) | 17.5 µM (inactive) | 19.1 µM (inactive) |
| CC(=O)Nc1ccc(C2CC(c3ccc([N+](=O)[O-])cc3)=Nc3ccccc3[S+]2[O-])cc1 (stereo not given) | 28.8 µM (inactive) | 18.9 µM (inactive) | 21.8 µM (inactive) | 22.6 µM (inactive) | 23.3 µM (inactive) | 20.6 | 14.1 µM (inactive) | 19.6 µM (inactive) | 11.6 µM (inactive) |  | 28.6 µM (inactive) | 16.3 µM (inactive) | 12.6 µM (inactive) | > 10 µM (inactive) | 17.6 µM (inactive) |
| CC1=NN(c2ccccc2)C(=O)C1=C1SCCCS1 | 27.2 µM (inactive) |  | 15.9 µM (inactive) | 32 µM (inactive) | 35.2 µM (inactive) | 31.9 | 21.9 µM (inactive) | 31.2 µM (inactive) | 17.3 µM (inactive) | 13.8 µM (inactive) | 28.2 µM (inactive) | 37 µM (inactive) | 16 µM (inactive) | 41.8 µM (inactive) | 19.5 µM (inactive) |
| CCOc1ccc2c(c1)[n+]([O-])c(-c1ccccc1)c(N)[n+]2[O-] | > 100 µM (inactive) | > 100 µM (inactive) | 30.5 µM (inactive) | > 100 µM (inactive) | 51.6 µM (inactive) | 55.2 | 97.3 µM (inactive) | 24.3 µM (inactive) | 30.5 µM (inactive) |  | 41.5 µM (inactive) | 68.5 µM (inactive) | 46.8 µM (inactive) | 66.7 µM (inactive) | 37 µM (inactive) |
| COc1c(C(C)C)cc2c3c1OC(=O)[C@@]31CCCC(C)(C)C1CC2 (stereo not given in full) | 24.5 µM (inactive) |  | 17.3 µM (inactive) | 25.5 µM (inactive) | 40.7 µM (inactive) | 55.7 |  | 11.2 µM (inactive) | 24.4 µM (inactive) | 9.2 µM (inactive) | 20.3 µM (inactive) | 50.2 µM (inactive) | 25.1 µM (inactive) | 27.2 µM (inactive) | 14.2 µM (inactive) |
| C[C@]12CCC3[C@@H](CCC45OC4C(=O)CC[C@]35C)C1Cc1cnn(-c3ccc(F)cc3)c1N2 (stereo not given in full) | 39 µM (inactive) | > 10 µM (inactive) | 40.5 µM (inactive) | 17.3 µM (inactive) | 28.6 µM (inactive) | 17.5 | 25.1 µM (inactive) | 31.5 µM (inactive) | 19.7 µM (inactive) | 15.3 µM (inactive) | 35.9 µM (inactive) |  | 22.9 µM (inactive) | > 100 µM (inactive) | 17.6 µM (inactive) |
| COc1ccc(S(=O)(=O)NC(C)C(=O)O)cc1 (stereo not given) | > 100 µM (inactive) | > 100 µM (inactive) | > 100 µM (inactive) | > 100 µM (inactive) | > 100 µM (inactive) | > 100 | > 100 µM (inactive) | > 100 µM (inactive) | > 100 µM (inactive) |  | > 100 µM (inactive) |  | > 100 µM (inactive) | > 100 µM (inactive) | > 100 µM (inactive) |
| O=c1c2cccc3cccc(c4n1CCN=4)c32 | > 100 µM (inactive) | 40.8 µM (inactive) | > 100 µM (inactive) | > 100 µM (inactive) | 61.1 µM (inactive) | 85.7 | 76.9 µM (inactive) | > 100 µM (inactive) | 84.5 µM (inactive) | 57.8 µM (inactive) | > 100 µM (inactive) |  | 30.3 µM (inactive) | > 100 µM (inactive) | 56.8 µM (inactive) |
| Clc1ccc(C2=NN(c3ccccc3)C3c4cc(Br)ccc4OCC23)cc1 (stereo not given) | 86.3 µM (inactive) |  | > 100 µM (inactive) | 66.7 µM (inactive) | > 100 µM (inactive) |  | > 100 µM (inactive) | 59.7 µM (inactive) |  | 18.6 µM (inactive) | 99.1 µM (inactive) | > 100 µM (inactive) | 40.9 µM (inactive) | 96.4 µM (inactive) | 40.8 µM (inactive) |
